Test results reported in patent publication US20230028441A1, “NOVEL HETEROARYL-TRIAZOLE COMPOUNDS AS PESTICIDES” (Bayer Aktiengesellschaft, priority 2019, published 2023).
Read-outs that look alike come from different tables or passages of the source.

Experiments:
Assay type in all cases: in vivo
[1] = tested on: adult engorged female ticks (Rhipicephalus microplus); test: Rhipicephalus (Boophilus) microplus injection test; settings: 168 h, read-out: efficacy (infertile eggs)
Method in brief: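 Compound was dissolved in DMSO at 10 mg per 0.5 mL and diluted with DMSO to the test concentration. Five engorged adult females received a 1 μL abdominal injection and were kept in a climate chamber. After 7 days, fertile egg deposition was scored, with unclear eggs held until hatching at about 42 days; 100% efficacy means all eggs were infertile.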

[2] = tested on: fall armyworm larvae (Spodoptera frugiperda); test: Spodoptera frugiperda spray test (maize leaf sections); settings: 168 h
Method in brief: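 Maize leaf sections were sprayed with compound formulated in acetone/DMF and diluted in water containing 1000 ppm emulsifier. Once dry, sections were infested with fall armyworm larvae. Mortality (%) was scored after 7 days.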

[3] = tested on: adult cat fleas (Ctenocephalides felis); test: Ctenocephalides felis in-vitro contact test, adult cat flea; settings: 5 μg/cm^2 (=500 g/ha), after 48 hours, read-out: efficacy (fleas dead or moribund)
Method in brief: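 Acetone solutions were coated on glass tube walls, 900 ppm giving 5 μg/cm^2. After drying, 5-10 adult fleas per tube were held 48 h at room temperature. Fleas unable to climb away from a 45-50 °C heating plate within 5 min were scored dead or moribund, as % efficacy.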

[4] = tested on: larvae of the banded cucumber beetle (Diabrotica balteata); test: Diabrotica balteata spray test; settings: 168 h, read-out: efficacy (seedlings grown up)
Method in brief: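 Germinated wheat seedlings (5 per well, agar plates) sprayed with compound in acetone/DMF diluted in water with 1000 ppm emulsifier, then infested with 10-20 larvae per unit. Efficacy scored after 7 days as % seedling growth relative to untreated, uninfested control (100% = normal growth, 0% = none).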

[5] = tested on: caterpillars of the fall army worm (Spodoptera frugiperda); test: Spodoptera frugiperda spray test (cotton leaves); settings: 168 h
Experimental: Solvent: 14 parts by weight of dimethylformamide
Emulsifier: alkylaryl polyglycol ether
To produce a suitable preparation of active compound, 1 part by weight of active compound is mixed with the stated amount of solvent and is diluted with water, containing an emulsifier concentration of 1000 ppm, to the desired concentration. Further test concentrations are prepared by dilution with emulsifier containing water. Ammonium salt and/or penetration enhancer in a dosage of 1000 ppm are added to the desired concentration if necessary.
Cotton leaves (Gossypium hirsutum) are treated by being sprayed with the preparation of the active compound of the desired concentration and are infested with caterpillars of the fall army worm (Spodoptera frugiperda).
After 7 days mortality in % is determined. 100% means all the caterpillars have been killed and 0% means none of the caterpillars have been killed.

[6] = tested on: adult unfed cat fleas (Ctenocephalides felis); test: Ctenocephalides felis oral test; settings: 48 h
Method in brief: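 About 20 adult unfed Ctenocephalides felis fed through parafilm on cattle blood dosed with compound (DMSO stock diluted in blood), blood chamber at 37°C, fleas at room temperature. Mortality (%) scored after 2 days; 100% means all fleas killed.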

[7] = tested on: cattle tick larvae (Rhipicephalus microplus), strain Parkhurst, resistant against synthetic pyrethroids; test: Rhipicephalus (Boophilus) microplus in-vitro contact test, larval cattle tick; settings: read-out: efficacy (larvae dead or moribund)
Method in brief: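 Acetone solutions of compound were coated on glass tube walls (900 ppm giving 5 μg/cm^2) and dried. 20–50 pyrethroid-resistant Parkhurst larvae were held per tube at 27° C and 85% relative humidity; after 48 h negative geotaxis scored efficacy as percent larvae dead or moribund.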

[8] = tested on: green peach aphid (Myzus persicae); test: Myzus persicae oral test; settings: 120 h
Method in brief: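 Compound was dissolved at 1 part by weight in 100 parts acetone, then diluted with water to test concentration and combined with IPL41 insect medium (33%+15% sugar). A mixed aphid population fed on this through a parafilm seal, and mortality (%) was scored after 5 days.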

[9] = tested on: larvae of the southern green stink bug (Nezara viridula); test: Nezara viridula spray test; settings: in Hordeum vulgare, 96 h
Method in brief: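 Barley plants infested with Nezara viridula larvae were sprayed with compound in acetone/dimethylformamide, diluted in water containing 1000 ppm alkylarylpolyglycol ether emulsifier. Mortality (%) was scored after 4 days; 100% means all stink bugs killed.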

[10] = tested on: adult brown dog ticks (Rhipicephalus sanguineus); test: Rhipicephalus sanguineus in-vitro contact test with adult brown dog ticks; settings: after 48 hours, read-out: efficacy (ticks dead or moribund); for pest or weed control at 1 µg/cm2, 100 g/ha: 1 μg/cm^2 (=100 g/ha); for pest or weed control at 5 µg/cm2, 500 g/ha: 5 μg/cm^2 (=500 g/ha)
Method in brief: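 Compound in acetone coated onto glass tube inner walls at 900 ppm, giving 5 μg/cm^2. Adult ticks (5-10 per tube) held at room temperature for 48 h, then placed on a 45-50° C. heating plate for up to 5 min. Ticks unable to climb away counted dead or moribund; efficacy given as % dead/moribund.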

[11] = tested on: brown planthopper (Nilaparvata lugens); test: Nilaparvata lugens spray test; settings: in Oryza sativa, 96 h
Method in brief: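 Rice plants (Oryza sativa) sprayed with compound in acetone/DMF diluted in water containing 1000 ppm alkylarylpolyglycol ether emulsifier, then infested with planthoppers. Mortality % scored after 4 days (100% = all killed, 0% = none killed).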

[12] = 4 μg/animal, egg deposition after 7 days
[13] = 100 g/ha (=32 μg/well), after 7 days, wheat seeds
[14] = 100 ppm in cattle blood, after 2 days
[15] = 5 μg/cm^2 (=500 g/ha), after 48 hours
[16] = 20 μg/animal, egg deposition after 7 days
[17] = 500 g/ha (=160 μg/well), after 7 days, wheat seeds

| Compound | pest or weed control at 0.004 mg [1, 12] [%] | mortality at 100 g/ha [2] [%] | pest or weed control at 5 µg/cm2 [3] [%] | pest or weed control at 32 µg/disc, 100 g/ha [4, 13] [%] | mortality at 20 ppm [5] [%] | mortality at 100 ppm [6, 14] [%] | pest or weed control at 5 µg/cm2 [7, 15] [%] | mortality at 4 ppm [8] [%] | mortality at 500 g/ha [9] [%] | pest or weed control at 0.02 mg [1, 16] [%] | mortality at 500 g/ha [2] [%] | pest or weed control at 1 µg/cm2, 100 g/ha [10] [%] | pest or weed control at 5 µg/cm2, 500 g/ha [10] [%] | other results |
| --- | --- | --- | --- | --- | --- | --- | --- | --- | --- | --- | --- | --- | --- | --- |
| CC(NC(=O)c1cc(Cl)cc(OC(F)(F)F)c1)c1nc(N)nn1-c1ccc(C#N)cn1 (stereo not drawn) [I-118] | 100 | 100 | 90 | 100 | 100 | 100 | 100 | 100 | 100 |  |  |  |  |  |
| CC(NC(=O)c1cc(Cl)cc(C(F)(F)F)c1)c1nc(S(C)(=O)=O)nn1-c1ccc(Cl)cn1 (stereo not drawn) [I-063] | 100 | 100 |  | 100 | 100 |  |  | 100 | 100 | 100 | 100 |  |  | pest or weed control at 160 µg/disc, 500 g/ha [4, 17]: 100% |
| C[C@H](NC(=O)c1cc(Br)cc(OC(F)(F)F)c1)c1nc(N(C)C)nn1-c1ncccn1 [I-139] |  | 100 | 100 | 100 | 100 |  | 100 |  | 100 |  |  | 80 | 100 | mortality at 500 g/ha [11]: 100% |
| COC(=O)Nc1nc(C(C)NC(=O)c2cc(Cl)cc(C(F)(F)F)c2)n(-c2ccc(Cl)cn2)n1 (racemic) [I-010, methyl N-[1-(5-chloro-2-pyridyl)-5-[1-[[3-chloro-5-(trifluoromethyl)benzoyl]amino]ethyl]-1,2,4-triazol-3-yl]carbamate] |  | 100 |  |  | 80 |  |  | 90 |  |  | 100 | 100 | 100 | pest or weed control at 0.004 mg [1]: 100%; pest or weed control at 0.02 mg [1]: 100%; pest or weed control at 32 µg/disc, 100 g/ha [4]: 100%; pest or weed control at 160 µg/disc, 500 g/ha [4]: 100%; mortality at 100 ppm [6]: 100%; pest or weed control at 5 µg/cm2 ([7]; 48 h): 100% |
| C[C@H](NC(=O)c1cc(OC(F)(F)F)cc(C2CC2)c1)c1nc(N)nn1-c1ccc(C#N)cn1 [I-154] |  | 100 | 100 | 100 | 100 |  | 100 |  | 100 |  |  | 80 | 80 |  |
| CC(=O)Nc1nc(C(C)NC(=O)c2cc(Cl)cc(C(F)(F)F)c2)n(-c2ccc(Cl)cn2)n1 (racemic) [I-011, N-[1-[5-acetamido-2-(5-chloro-2-pyridyl)-1,2,4-triazol-3-yl]ethyl]-3-chloro-5-(trifluoromethyl)benzamide] | 100 | 100 |  | 100 | 100 | 100 | 100 | 100 | 90 | 100 | 100 |  | 80 | pest or weed control at 160 µg/disc, 500 g/ha [4, 17]: 100% |
| CC(NC(=O)c1cc(Cl)cc(C(F)(F)F)c1)c1nc(NC(=O)C2CC2)nn1-c1ccc(Cl)cn1 (stereo not drawn) [I-015] | 100 | 100 |  |  | 100 | 100 |  |  |  | 100 | 100 |  |  |  |
| CC(NC(=O)c1cc(F)cc(C#N)c1)c1nc(N)nn1-c1ncccn1 (stereo not drawn) [I-105] | 100 | 100 | 100 | 100 | 100 | 100 | 100 | 100 |  |  |  |  |  |  |
| CC(NC(=O)c1cc(Br)cc(C(F)(F)F)c1)c1nc(N)nn1-c1ccc(C#N)cn1 (stereo not drawn) [I-117] | 100 | 100 |  | 100 | 100 | 100 | 100 | 100 | 100 |  |  |  |  |  |
| CC(NC(=O)c1cc(Cl)cc(C(F)(F)F)c1)c1nc(NC(=O)C2CC2(F)F)nn1-c1ccc(Cl)cn1 (stereo not drawn) [I-018] | 100 |  | 100 | 100 | 100 | 100 | 100 |  |  | 100 |  |  |  | pest or weed control at 160 µg/disc, 500 g/ha [4, 17]: 100% |
| CNc1nc(C(C)NC(=O)c2cc(Cl)cc(OC(F)(F)F)c2)n(-c2ncccn2)n1 (stereo not drawn) [I-099] | 100 | 100 | 100 | 100 | 100 | 100 | 90 | 100 |  |  |  |  | 80 |  |
| CSc1nc(C(C)NC(=O)c2cc(Cl)cc(C(F)(F)F)c2)n(-c2ccc(Cl)cn2)n1 (stereo not drawn) [I-062] | 100 |  | 100 | 100 | 100 |  | 100 |  | 100 | 100 | 100 |  | 100 | pest or weed control at 160 µg/disc, 500 g/ha [4, 17]: 100%; mortality at 100 g/ha [9]: 100% |
| CC(NC(=O)c1cc(C(F)(F)F)cc(C(F)(F)F)c1)c1nc(N)nn1-c1ccc(C#N)cn1 (stereo not drawn) [I-104] | 100 | 100 | 100 | 100 | 100 | 100 | 100 | 100 |  |  |  | 100 | 100 |  |
| CC(NC(=O)c1cc(Br)cc(Br)c1)c1nc(N)nn1-c1ccc(C#N)cn1 (stereo not drawn) [I-114] |  | 100 |  | 100 | 100 |  | 100 | 90 |  |  |  |  |  |  |
| CNc1nc([C@H](C)NC(=O)c2cc(Br)cc(C(F)(F)F)c2)n(-c2ncccn2)n1 [I-136] |  | 100 |  | 100 | 100 |  | 100 |  | 90 |  |  | 100 | 100 | mortality at 500 g/ha [11]: 100% |
